The values that follow come from patent publication US11066379B2 (THE TEXAS A&M UNIVERSITY SYSTEM, priority 2018, dated 2021).

In assay [1] the target is T1, active human CypA protein (Homo sapiens, UniProt P62937).
T1 construct: Active human CypA full-length protein was from Abcam; purchased Abcam
The experiment in a line: Binding to immobilized CypA by surface plasmon resonance (SPR). Conditions: for immunosuppressive activity (SAR profile, FIG. 2): in words, CypA binding / IL-2 inhibition. The method, then:
Sensor surface activation and ligand immobilization were performed by using HBS-EP as running buffer at a flow rate of 5 μL/min and 25° C. CM5 sensor chips were used as surface where Cyp A or D was immobilized as ligand. The CM5 chip is a glass slide coated with a thin layer of gold with a matrix of carboxymethylated dextran covalently attached. The CM5 chip was activated using an amine coupling kit. […] After activation, the ligand, 100 μg/mL of active human CypA protein dissolved in sodium acetate 10 mM at pH 4.5 was added to be immobilized over a CM5 sensor chip. Finally ethanolamine-HCl was injected to deactivate the remaining active esters and to avoid non-specific binding. […] Once analytes were tested and interaction was observed, individual binding curves were analyzed by determining the kinetic constants of analytes-CypA binding, namely, the observed rate constant (Kobs), the association rate constant (Kass), the dissociation rate constant (Kdiss), and the kinetic equilibrium dissociation constant (KD). At equilibrium, by definition, […]. The pseudo-first order association rate constants Kobs (s^-1) were determined for each compound concentration by using the 1:1 Langmuir association model of BiaEvaluation software (BiaCore, Uppsala, Sweden). Then a representation of Kobs against the corresponding concentration of each compound was done. […] From the equation of these representations, Kass, M^-1 s^-1, gradient of the plot, and […]^-1, intercept of the plot was obtained. Within these two values, the kinetic equilibrium dissociation constant KD for each analyte-CypA binding was obtained. The duration of the sample injection was 2 min at 10 μL/min flow rate. Next, dissociation of bound molecules in HBS-EP buffer flow was studied. The bound drugs were removed from the chip surface before the next injection by adding 1 M Glycine-HCl at pH 2.5 for 1 min. The association phase was used to quantify the compound-CypA or D interactions. All experiments were performed four times.
In general terms: In SPR one partner is held on a chip, and binding of the other changes the refractive index at the surface.

For assay [2], the system named is mitochondrial membrane permeability transition pore (mPTP) in SH-SY5Y cells. Description: Mitochondrial membrane permeability transition pore (mPTP) measurement, TBHP-induced opening. The class given is cell-based, human. Conditions: 1 mM TBHP. The method, then:
The blockage of mPTP by compounds was determined with the MitoProbe Transition Assay Kit following manufacturer's instructions. Briefly, SH-SY5Y human neuroblastoma cells were re-suspended in pre-warmed PBS/Ca^+2 buffer at a final concentration of 1×10^6 cells/mL. Cells were loaded with 0.01 μM Calcein-AM and incubated at 37° C. for 15 min. Then, 0.4 mM CoCl2 and compounds at selected concentrations were added and incubated for 15 min at 37° C. […] After this incubation, cells were centrifuged and re-suspended in 100 μL of PBS. Just before analyzing, 1 mM tert-butyl hydroperoxide (TBHP) was added to the samples to induce pore opening. Fluorescence intensity was measured at 488 nm excitation and 517 nm emission wavelengths by flow cytometry using the ImageStreamMKII (Amnis Corporation, Merck-Millipore) and […] software. The fluorescence of 10,000 events was analyzed with IDEASR Application vs 6.0 (Amnis Corporation, Merck-Millipore). Experiments were carried out four times.

In assay [3] the target is CypD (Homo sapiens, UniProt P30405). Description: CypD enzyme inhibition assay (PPIase activity). It is filed as biochemical. Particulars: for IC50: CypD 1 nM; for selectivity for CypD over CypA: PPIase IC50 CypA vs CypD. The method, then: The inhibition of the peptidyl-prolyl cis-trans isomerase (PPIase) activity of compounds was determined by following the rate of hydrolysis of N-succinyl-Ala-Ala-Pro-Phe-pnitroanilide by chymotrypsin. CsA was used as positive control. The assay was performed as previously described (Yan, W., Qing, J., Mei, H., Nong, J., Huang, J., Zhu, J., Jiang, H., Liu, L., Zhang, L. and Li, J. Bioorg. Med. Chem. Lett., 2015, 25, 5682-5686) with small modifications. The assay buffer (20 mM Tris-HCl, 50 mM NaCl, pH 7.8), CypD (1 nM) and the compounds at concentrations ranging from 0.001 to 10 μM were pre-cooled at 4° C. for 1 h. After that time, chymotrypsin at 0.4 mg/mL in 1 mM HCl was added to each well. The reaction was initiated by the addition of the peptide (0.1 mg/mL in 500 mM LiCl in THF). The absorbance at 380 nm was monitored every 30 sec for 5 min with a spectrophotometer plate reader. The blank rates of hydrolysis (in absence of CypD) were subtracted from the rates in the presence of the enzyme. The half-maximal inhibitory concentration (IC50) was calculated by fitting the data with a log(inhibitor) vs. response model of GraphPad Prism 5.0 software. All experiments were performed four times.
CypD, sequence (P30405 30-207): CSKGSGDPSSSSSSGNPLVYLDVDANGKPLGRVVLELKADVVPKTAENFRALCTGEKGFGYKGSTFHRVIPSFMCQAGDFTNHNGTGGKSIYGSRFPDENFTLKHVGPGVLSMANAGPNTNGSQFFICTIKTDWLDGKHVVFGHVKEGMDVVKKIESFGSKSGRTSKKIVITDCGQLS

Assay [4] has as its system SH-SY5Y cells. Description: Neuroprotection against H2O2 toxicity, cell viability by MTT. The class given is cell-based, human. Particulars: 150 μM H2O2 co-treatment 6 h; 0.01, 0.1 and 1 μM. The method, then:
SH-SY5Y cells were seeded in 96-well plates at a density of 2.5×10^5 cells/mL and allowed to adhere for 24 h. At first, cells were treated only with compounds at concentrations ranging from 10-0.01 μM for 24 h to determine their possible cytotoxic effects. Experiments were carried out three times. For neuroprotective experiments, cells were treated with compounds at non-toxic concentrations (1 μM→1 nM) and 150 μM H2O2 for 6 h. Briefly, cells were washed three times with saline solution and 200 μL of MTT (500 μg/mL) dissolved in saline buffer were added to each well. Following 1 h of incubation at 37° C., the cells were disaggregated with sodium dodecyl sulphate at 5%. Absorbance of formazan crystals was measured at 595 nm with a spectrophotometer plate reader. Saponin was used as death control and its absorbance was subtracted from the other data. All experiments were performed four times.

Assay [5] concerns SH-SY5Y cells. The experiment in a line: Glutathione assay (Thiol Tracker Violet) after H2O2. It is filed as cell-based, human. Particulars: 150 μM H2O2 co-treatment 6 h, two or more concentrations. The method, then: Glutathione (GSH) levels were determined using Thiol Tracker Violet dye, which reacts with reduced thiols in cells. Reduced glutathione represents the majority of intracellular free thiols, so this probe can be used to estimate its levels in cells. Measurements were performed following manufacturer's protocol. Cells were seeded in 96-well plates at 2.5×10^5 cells/mL for 24 h and treated with compounds at various concentrations (1 μM→1 nM) and 150 μM H2O2. After 6 h, SH-SY5Y cells were washed twice with PBS and loaded with 100 μL of prewarmed Thiol Tracker Violet dye (10 μM) for 30 min at 37° C. The fluorescence was measured at 404 nm excitation and emission at 526 nm. All experiments were performed four times.

SMILES strings stand for the structures. Several values for one entry are separate records, joined by “and”; a condition that tells them apart may be missing. Identical values can stand only once.

T1 sequence (P62937 whole entry): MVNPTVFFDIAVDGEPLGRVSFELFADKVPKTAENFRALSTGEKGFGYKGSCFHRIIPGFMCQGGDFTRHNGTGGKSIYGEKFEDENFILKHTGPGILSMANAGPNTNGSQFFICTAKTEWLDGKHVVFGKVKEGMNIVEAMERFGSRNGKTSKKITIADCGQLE

Turning to `CC(=O)O[C@H]1O[C@@H](OC(C)=O)[C@@H]2CC[C@](O)(C3(C)CCCC(C)(C)C3)C[C@H]12` (stereo partly drawn) [Compound 22, (1S,3R,3aS,5R,7aR)-5-hydroxy-5-(1,3,3-trimethylcyclohexyl)octahydroisobenzo-furan-1,3-diyl diacetate], the “immunosuppressive activity (SAR profile, FIG. 2)” value in assay [1] was “inactive”. In assay [2], the mPTP opening entry is reported as “prevent TBHP-induced opening”. Also, in assay [3], the IC50 (as a rule, the midpoint of a concentration-inhibition curve) is below 0.5 µM. Also, the “protection of cell viability against H2O2 insult” value (shortened to “protection of cell viability”) in assay [4] is listed as “protected cells against H2O2 insult at almost all concentrations”. In addition, in assay [5], the GSH levels result was “recovered GSH levels”.

In the case of `CC(=O)O[C@@H]1OC[C@H]2C=C(C3(C)CCCCC3)CC[C@@H]12` [Compound 27a, (1S,3aS,7aR)-5-(1-methylcyclohexyl)-1,3,3a,6,7,7a-hexahydroisobenzofuran-1-yl acetate], the “immunosuppressive activity (SAR profile, FIG. 2)” value in assay [1] was “inactive”. In assay [2], the mPTP opening result is “prevent TBHP-induced opening”. For the same compound, in assay [3], the IC50 was below 0.5 µM and the “selectivity for CypD over CypA” value is recorded as “about 3 fold”. Moreover, the “selectivity for CypD over CypA” value in assay [3] (listed as (−)-27a) is listed as around 3 fold. Also, the “protection of cell viability” value in assay [4] is given as “protected cells against H2O2 insult at almost all concentrations”. In assay [5], the GSH levels entry was “recovered GSH levels”.

Consider `CC(=O)O[C@H]1OC[C@@H]2C=C([C@@]3(C)CCCC(C)(C)C3)CC[C@H]12` [Compound 29a, (1R,3aR,7aS)-5-(1,3,3-trimethylcyclohexyl)-1,3,3a,6,7,7a-hexahydroisobenzofuran-1-yl acetate], for which the Kd (commonly a measure of binding affinity in units of concentration) in assay [1] (SPR, immobilized CypA) is ~3 µM and 2.8 to 6.8 µM. For the same compound, the mPTP opening result in assay [2] is “prevent TBHP-induced opening”. The IC50 in assay [3] is below 0.5 µM. Also, the “protection of cell viability” value in assay [4] is “protected cells against H2O2 insult at almost all concentrations”. In addition, the GSH levels entry in assay [5] is recorded as “recovered GSH levels”.
